How the values were obtained:
Assay in all cases: relative viability (nuclei count vs DMSO), 5 days (fraction); higher = more cells survive
201T = test system: 201T
How it was run: (§1)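 Nuclei were stained with Hoechst during a one-step fixation (final 0.05% Triton X-100, 1% formaldehyde, 1 ug/ml Hoechst) carried out 5 days after dosing, then counted on 4× images. The cells, lung cancer lines in 1536-well plates, had been dosed by pin tool the day after seeding with one drug alone or a fixed anchor-drug dose plus five library-drug doses (not always all listed) in √10 steps. Relative viability is the nuclei count in treated wells divided by that in vehicle wells, and each value is the median of duplicate plates.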

BEN = test system: BEN
How it was run: as §1

EMC-BAC-2 = test system: EMC-BAC-2
How it was run: as §1

HARA = test system: HARA
How it was run: as §1

LCLC-103H = test system: LCLC-103H
How it was run: as §1

LOU-NH91 = test system: LOU-NH91
How it was run: as §1

NCI-H1395 = test system: NCI-H1395
How it was run: as §1

NCI-H1666 = test system: NCI-H1666
How it was run: as §1

NCI-H1993 = test system: NCI-H1993
How it was run: as §1

NCI-H2009 = test system: NCI-H2009
How it was run: as §1

NCI-H2023 = test system: NCI-H2023
How it was run: as §1

NCI-H2087 = test system: NCI-H2087
How it was run: as §1

NCI-H2126 = test system: NCI-H2126
How it was run: as §1

NCI-H2347 = test system: NCI-H2347
How it was run: as §1

NCI-H23 = test system: NCI-H23
How it was run: as §1

NCI-H3122 = test system: NCI-H3122
How it was run: as §1

NCI-H441 = test system: NCI-H441
How it was run: as §1

NCI-H596 = test system: NCI-H596
How it was run: as §1

NCI-H647 = test system: NCI-H647
How it was run: as §1

NCI-H650 = test system: NCI-H650
How it was run: as §1

NCI-H727 = test system: NCI-H727
How it was run: as §1

NCI-H838 = test system: NCI-H838
How it was run: as §1

O=C(O)c1ccc(-c2c[nH]c3ncc(-c4ccccc4)cc23)cc1C1CCCC1 + COc1cc2c(Oc3ccc(NC(=O)C4(C(=O)Nc5ccc(F)cc5)CC4)cc3F)ccnc2cc1OCCCN1CCOCC1 [Foretinib] (partner 0.25 µM)
relative viability (201T; first compound 0.04 µM): 1.29 | relative viability (201T; first compound 0.1265 µM): 1.25 | relative viability (201T; first compound 0.4 µM): 1.11 | relative viability (201T; first compound 1.265 µM): 0.958 | relative viability (BEN; first compound 0.04 µM): 0.586 | relative viability (BEN; first compound 0.1265 µM): 0.854 | relative viability (BEN; first compound 0.4 µM): 0.937 | relative viability (BEN; first compound 1.265 µM): 0.765 | relative viability (EMC-BAC-2; first compound 0.04 µM): 0.997 | relative viability (EMC-BAC-2; first compound 0.1265 µM): 1.08 | relative viability (EMC-BAC-2; first compound 0.4 µM): 0.97 | relative viability (EMC-BAC-2; first compound 1.265 µM): 0.857 | relative viability (HARA; first compound 0.04 µM): 0.836 | relative viability (HARA; first compound 0.1265 µM): 0.952 | relative viability (HARA; first compound 0.4 µM): 0.811 | relative viability (HARA; first compound 1.265 µM): 0.796 | relative viability (LCLC-103H; first compound 0.04 µM): 0.702 | relative viability (LCLC-103H; first compound 0.1265 µM): 0.793 | relative viability (LCLC-103H; first compound 0.4 µM): 0.613 | relative viability (LCLC-103H; first compound 1.265 µM): 0.507 | relative viability (LOU-NH91; first compound 0.04 µM): 0.892 | relative viability (LOU-NH91; first compound 0.1265 µM): 1.03 | relative viability (LOU-NH91; first compound 0.4 µM): 0.927 | relative viability (LOU-NH91; first compound 1.265 µM): 0.781 | relative viability (NCI-H1395; first compound 0.04 µM): 0.983 | relative viability (NCI-H1395; first compound 0.1265 µM): 1.05 | relative viability (NCI-H1395; first compound 0.4 µM): 1.01 | relative viability (NCI-H1395; first compound 1.265 µM): 0.944 | relative viability (NCI-H1666; first compound 0.04 µM): 0.961 | relative viability (NCI-H1666; first compound 0.1265 µM): 0.959 | relative viability (NCI-H1666; first compound 0.4 µM): 0.921 | relative viability (NCI-H1666; first compound 1.265 µM): 0.441 | relative viability (NCI-H1993; first compound 0.04 µM): 0.788 | relative viability (NCI-H1993; first compound 0.1265 µM): 0.834 | relative viability (NCI-H1993; first compound 0.4 µM): 0.759 | relative viability (NCI-H1993; first compound 1.265 µM): 0.805 | relative viability (NCI-H2009; first compound 0.04 µM): 1.22 | relative viability (NCI-H2009; first compound 0.1265 µM): 1.22 | relative viability (NCI-H2009; first compound 0.4 µM): 1.22 | relative viability (NCI-H2009; first compound 1.265 µM): 0.968 | relative viability (NCI-H2023; first compound 0.04 µM): 0.988 | relative viability (NCI-H2023; first compound 0.1265 µM): 1 | relative viability (NCI-H2023; first compound 0.4 µM): 0.895 | relative viability (NCI-H2023; first compound 1.265 µM): 0.749 | relative viability (NCI-H2087; first compound 0.04 µM): 0.933 | relative viability (NCI-H2087; first compound 0.1265 µM): 1.16 | relative viability (NCI-H2087; first compound 0.4 µM): 1.06 | relative viability (NCI-H2087; first compound 1.265 µM): 0.901 | relative viability (NCI-H2126; first compound 0.04 µM): 1.25 | relative viability (NCI-H2126; first compound 0.1265 µM): 1.12 | relative viability (NCI-H2126; first compound 0.4 µM): 1.16 | relative viability (NCI-H2126; first compound 1.265 µM): 1.2 | relative viability (NCI-H2347; first compound 0.04 µM): 0.861 | relative viability (NCI-H2347; first compound 0.1265 µM): 0.783 | relative viability (NCI-H2347; first compound 0.4 µM): 1.01 | relative viability (NCI-H2347; first compound 1.265 µM): 0.803 | relative viability (NCI-H23; first compound 0.04 µM): 1.1 | relative viability (NCI-H23; first compound 0.1265 µM): 1 | relative viability (NCI-H23; first compound 0.4 µM): 0.939 | relative viability (NCI-H23; first compound 1.265 µM): 0.616 | relative viability (NCI-H3122; first compound 0.04 µM): 0.968 | relative viability (NCI-H3122; first compound 0.1265 µM): 0.913 | relative viability (NCI-H3122; first compound 0.4 µM): 0.891 | relative viability (NCI-H3122; first compound 1.265 µM): 0.87 | relative viability (NCI-H441; first compound 0.04 µM): 1.14 | relative viability (NCI-H441; first compound 0.1265 µM): 0.881 | relative viability (NCI-H441; first compound 0.4 µM): 0.897 | relative viability (NCI-H441; first compound 1.265 µM): 0.563 | relative viability (NCI-H596; first compound 0.04 µM): 0.783 | relative viability (NCI-H596; first compound 0.1265 µM): 0.79 | relative viability (NCI-H596; first compound 0.4 µM): 0.919 | relative viability (NCI-H596; first compound 1.265 µM): 0.999 | relative viability (NCI-H647; first compound 0.04 µM): 1.33 | relative viability (NCI-H647; first compound 0.1265 µM): 1.35 | relative viability (NCI-H647; first compound 0.4 µM): 1.14 | relative viability (NCI-H647; first compound 1.265 µM): 0.965 | relative viability (NCI-H650; first compound 0.04 µM): 1.13 | relative viability (NCI-H650; first compound 0.1265 µM): 1.11 | relative viability (NCI-H650; first compound 0.4 µM): 0.888 | relative viability (NCI-H650; first compound 1.265 µM): 0.71 | relative viability (NCI-H727; first compound 0.04 µM): 1.2 | relative viability (NCI-H727; first compound 0.1265 µM): 0.823 | relative viability (NCI-H727; first compound 0.4 µM): 0.754 | relative viability (NCI-H727; first compound 1.265 µM): 0.944 | relative viability (NCI-H838; first compound 0.04 µM): 1.02 | relative viability (NCI-H838; first compound 0.1265 µM): 1.17 | relative viability (NCI-H838; first compound 0.4 µM): 1.05 | relative viability (NCI-H838; first compound 1.265 µM): 0.923

— the supplement of paper PMC10307832
